# Marks after values point to notes of the source that are not given here.
# Tests used:
# HSV-1 (F strain) [1] = assay: Guinea pig model of cutaneous HSV-1 infection, acyclovir creams (Example 9); format: in vivo, female Hartley guinea pigs; conditions: 5% ACV in 5% Nonoxynol-9 cream; once a day for 3 days starting 24 hours post-infection; Day 4; treated vs nontreated side
# Description: In vivo testing for antiviral activity against cutaneous HSV-1 infections is also done using a guinea pig model, for example, by the procedures described by Hubler, W.R., Jr., Troy, D.F., Troll, D., and Jarratt, M., "Guinea Pig Model For Cutaneous Herpes Simplex Virus Infection", J. Invest. Dermatol., 62:92-95 (1974). This procedure is a modification of a procedure initially described by Hubler, W.R., Jr., et al., "Guinea Pig Model Eor Cutaneous Herpes Simplex Virus Infection", J. Invest. Dermatol., 62:92-95 (1974). The backs of female Hartley guinea pigs were shaved, depilated and inoculated with HSV-1 (F strain) in four different areas by multiple shallow punctures. Two quadrants were on the left side and two on the right side of the dorsum. The animals were divided into 3 treatment groups of 6 animals each. The treatment groups were topically administered a cream on one side of the back once a day for 3 days starting 24 hours post-infection, the other side of back was not treated. The creams contained as an active ingredient either 5% acyclovir in a polyethylene glycol (PEG) based cream (Zovirax ®), 5% acyclovir in a 5% Nonoxynol-9 (N-9) cream or 5% Nonoxynol-9 cream only (placebo control). The numbers of lesions which developed on either the treated or untreated side of the back were counted on Day 4 after infection. […]
# [2] = Partition coefficient (octanol / water); format: physicochemical; conditions: for logP: ratio of concentrations in nonpolar medium, e.g. octanol, and aqueous medium, e.g. water
# Description: The modes of action reported for each compound are likewise distinct. Azone has been reported as a penetration enhancer, i.e., when it is co-administered with another agent, Azone will facilitate the movement of the agent into the cell by increasing lipid fluidity (Lambert, et al., (1989), Pharm Res., 6(9):798-803). The enhancement effect has been reported to be more pronounced with lipophilic agents and with agents with higher partition coefficients. A partition coefficient is the ratio of the concentrations of a given compound in a nonpolar medium, e.g., octanol and in an aqueous medium, e.g., water (ACV and DHPG have partition coefficients of less than 0.1, whereas Ada-DHPG has a partition coefficient of about 2.8 x10⁵).
# HSV-1 (F strain) [3] = assay: Guinea pig model of cutaneous HSV-1 infection, DHPG versus Ada-DHPG in PG, Azone or Nonoxynol-9 creams (Example 10); format: in vivo, female Hartley guinea pigs; conditions: 0.5 ml/animal once a day for 3 days, lesions counted Day 4
# Description: (§1) In vivo testing for antiviral activity against cutaneous HSV-1 infections is also done using a guinea pig model, for example, by the procedures described by Hubler, W.R., Jr., Troy, D.F., Troll, D., and Jarratt, M., "Guinea Pig Model For Cutaneous Herpes Simplex Virus Infection", J. Invest. Dermatol., 62:92-95 (1974).
# (§2) This procedure is a modification of a procedure initially described by Hubler, W.R., Jr., et al., "Guinea Pig Model For Cutaneous Herpes Simplex Virus Infection", J. Invest. Dermatol., 62:92-95 (1974).
# The backs of female Hartley guinea pigs were shaved, depilated and inoculated with HSV-1 (F strain) in four different areas by multiple shallow punctures. Two quadrants were on the left side and two on the right side of the dorsum. The animals were divided into groups and topically administered a cream on one side of the back (0.5 ml/animal) once a day for 3 days starting […] post infection. The other side of the back was not treated. The cream contained either a formulation of 9-(1,3-dihydroxy-2-propoxymethyl)guanine (DHPG) with Azone, Nonoxynol-9 (N-9), or propylene glycol (PG); or 9-[1,3-di(1-adamantylcarboxy)-2-propoxymethyl]guanine (Ada-DHPG) with Azone, Nonoxynol-9 (N-9), or propylene glycol (PG). Placebo groups were treated with only Azone, Nonoxynol-9 (N-9) or propylene glycol (PG). Both DHPG and Ada-DHPG were run in each test with a single formulation. A total of 4 tests were run. In each study, the number of lesions which developed were counted on Day 4 after infection. The treated side versus nontreated side for the various groups were compared by a percent reduction in the number of lesions which developed.
# HSV-1 (F strain) [4] = assay: Guinea pig model of cutaneous HSV-1 infection, dose response tests in Azone / Nonoxynol-9 creams (Example 8); format: in vivo, female Hartley guinea pigs; conditions: once a day 3 days from 24 hours post-infection, Day 4
# Description: as §1, §2
# The backs of female Hartley guinea pigs were shaved, depilated and inoculated with HSV-1 (F strain) in four different areas by multiple shallow punctures. Two quadrants were on the left side and two on the right side of the dorsum. The guinea pigs were divided into treatment groups of usually 6 each. Treatment was topically administered once a day for 3 days starting 24 hours post-infection on one side of the back. The other side of the back was not treated. Different treatment groups were administered creams which contained 9-[1,3-di(1-adamantyl-carboxy)-2-propoxymethyl]guanine (Ada-DHPG), (10%, 5%, 2.5%, 1% or 0%) with 5% propylene glycol (PG), or 5% propylene glycol (PG); and either Nonoxynol-9 (5% and 2.5%) or Azone (10% and 5%). Additionally, other groups were administered creams containing Ada-DHPG (10%, 5%, 2.5%, 1% or 0%) with no propylene glycol and either 10% Azone or 5% Nonoxynol-9. Seven dose response tests were run in all. In each test the numbers of lesions were counted on Day 4 after infection. The treated side versus the nontreated side for the various groups were compared by a percent reduction in number of lesions which developed.
compound,measurement,setting,value
"Nc1nc2c(ncn2COCCO)c(=O)[nH]1 [ACV, 9-(2-hydroxyethoxymethyl)guanine]",Percent Reduction in numbers of lesions,HSV-1 (F strain) [1],69* Percent
same,partition coefficient,[2]; octanol/water,less than 0.1
"Nc1nc2c(ncn2COC(COC(=O)C23CC4CC(CC(C4)C2)C3)COC(=O)C23CC4CC(CC(C4)C2)C3)c(=O)[nH]1 (stereo not shown) [Ada-DHPG, 9-[1,3-di(1-adamantylcarboxy)-2-propoxymethyl]guanine]",Percent Reduction in the number of lesions,HSV-1 (F strain) [3]; Test 1: 10% Ada-DHPG in 25% PG cream,51* Percent
same,Percent Reduction in the number of lesions,HSV-1 (F strain) [3]; Test 2: 10% Ada-DHPG in 5% PG cream,42* Percent
same,Percent Reduction in the number of lesions,HSV-1 (F strain) [3]; Test 3: 10% Ada-DHPG in 10% Azone cream,76* Percent
same,Percent Reduction in the number of lesions,HSV-1 (F strain) [3]; Test 4: 10% Ada-DHPG in 5% Nonoxynol-9 cream,77* Percent
same,logP,[2],~5.45
same,Percent Reduction in number of lesions,"HSV-1 (F strain) [4]; Test 1: 1% Ada-DHPG, 5% PG (no surfactant added) cream",12%
same,Percent Reduction in number of lesions,"HSV-1 (F strain) [4]; Test 1: 2.5% Ada-DHPG, 5% PG (no surfactant added) cream",16%
same,Percent Reduction in number of lesions,"HSV-1 (F strain) [4]; Test 1: 5% Ada-DHPG, 5% PG (no surfactant added) cream",3%
same,Percent Reduction in number of lesions,"HSV-1 (F strain) [4]; Test 1: 10% Ada-DHPG, 5% PG (no surfactant added) cream",37* Percent
same,Percent Reduction in number of lesions,"HSV-1 (F strain) [4]; Test 2: 1% Ada-DHPG, 5% Azone cream (with 5% PG)",-6%
same,Percent Reduction in number of lesions,"HSV-1 (F strain) [4]; Test 2: 2.5% Ada-DHPG, 5% Azone cream (with 5% PG)",14%
same,Percent Reduction in number of lesions,"HSV-1 (F strain) [4]; Test 2: 5% Ada-DHPG, 5% Azone cream (with 5% PG)",14%
same,Percent Reduction in number of lesions,"HSV-1 (F strain) [4]; Test 2: 10% Ada-DHPG, 5% Azone cream (with 5% PG)",29%
same,Percent Reduction in number of lesions,"HSV-1 (F strain) [4]; Test 3: 1% Ada-DHPG, 10% Azone cream (with 5% PG)",43* Percent
same,Percent Reduction in number of lesions,"HSV-1 (F strain) [4]; Test 3: 2.5% Ada-DHPG, 10% Azone cream (with 5% PG)",35* Percent
same,Percent Reduction in number of lesions,"HSV-1 (F strain) [4]; Test 3: 5% Ada-DHPG, 10% Azone cream (with 5% PG)",73* Percent
same,Percent Reduction in number of lesions,"HSV-1 (F strain) [4]; Test 3: 10% Ada-DHPG, 10% Azone cream (with 5% PG)",78* Percent
same,Percent Reduction in number of lesions,"HSV-1 (F strain) [4]; Test 4: 1% Ada-DHPG, 10% Azone (no PG) cream",27%
same,Percent Reduction in number of lesions,"HSV-1 (F strain) [4]; Test 4: 2.5% Ada-DHPG, 10% Azone (no PG) cream",18%
same,Percent Reduction in number of lesions,"HSV-1 (F strain) [4]; Test 4: 5% Ada-DHPG, 10% Azone (no PG) cream",27%
same,Percent Reduction in number of lesions,"HSV-1 (F strain) [4]; Test 4: 10% Ada-DHPG, 10% Azone (no PG) cream",47* Percent
same,Percent Reduction in number of lesions,"HSV-1 (F strain) [4]; Test 5: 1% Ada-DHPG, 2.5% Nonoxynol-9 cream (with 5% PG)",33%
same,Percent Reduction in number of lesions,"HSV-1 (F strain) [4]; Test 5: 2.5% Ada-DHPG, 2.5% Nonoxynol-9 cream (with 5% PG)",52* Percent
same,Percent Reduction in number of lesions,"HSV-1 (F strain) [4]; Test 5: 5% Ada-DHPG, 2.5% Nonoxynol-9 cream (with 5% PG)",52* Percent
same,Percent Reduction in number of lesions,"HSV-1 (F strain) [4]; Test 5: 10% Ada-DHPG, 2.5% Nonoxynol-9 cream (with 5% PG)",64* Percent
same,Percent Reduction in number of lesions,"HSV-1 (F strain) [4]; Test 6: 1% Ada-DHPG, 5% Nonoxynol-9 cream (with 5% PG)",59* Percent
same,Percent Reduction in number of lesions,"HSV-1 (F strain) [4]; Test 6: 2.5% Ada-DHPG, 5% Nonoxynol-9 cream (with 5% PG)",65* Percent
same,Percent Reduction in number of lesions,"HSV-1 (F strain) [4]; Test 6: 5% Ada-DHPG, 5% Nonoxynol-9 cream (with 5% PG)",92* Percent
same,Percent Reduction in number of lesions,"HSV-1 (F strain) [4]; Test 6: 10% Ada-DHPG, 5% Nonoxynol-9 cream (with 5% PG)",88* Percent
same,Percent Reduction in number of lesions,"HSV-1 (F strain) [4]; Test 7: 1% Ada-DHPG, 5% Nonoxynol-9 (no PG) cream",57* Percent
same,Percent Reduction in number of lesions,"HSV-1 (F strain) [4]; Test 7: 2.5% Ada-DHPG, 5% Nonoxynol-9 (no PG) cream",68* Percent
same,Percent Reduction in number of lesions,"HSV-1 (F strain) [4]; Test 7: 5% Ada-DHPG, 5% Nonoxynol-9 (no PG) cream",90* Percent
same,Percent Reduction in number of lesions,"HSV-1 (F strain) [4]; Test 7: 10% Ada-DHPG, 5% Nonoxynol-9 (no PG) cream",82* Percent
"Nc1nc2c(ncn2COC(CO)CO)c(=O)[nH]1 [DHPG, 9-(1,3-dihydroxy-2-propoxymethyl)guanine, reference compound]",Percent Reduction in the number of lesions,HSV-1 (F strain) [3]; Test 1: 4.4% DHPG in 25% PG cream,75* Percent
same,Percent Reduction in the number of lesions,HSV-1 (F strain) [3]; Test 2: 4.4% DHPG in 5% PG cream,68* Percent
same,Percent Reduction in the number of lesions,HSV-1 (F strain) [3]; Test 3: 4.4% DHPG in 10% Azone cream,100* Percent
same,Percent Reduction in the number of lesions,HSV-1 (F strain) [3]; Test 4: 4.4% DHPG in 5% Nonoxynol-9 cream,94* Percent
same,logP,[2],< -1
